We go through 24 molecules from patent US20110044938A1 (NYCOMED GMBH, priority 2006, published 2011).

Assay [1] has as its system RKO (RKOp27) human colon adenocarcinoma cells. The assay is described as follows: Alamar Blue cell viability assay, anti-proliferative/cytotoxic activity on proliferating RKO subclones. It counts as cell-based. Particulars: RKOp27, 72 h, RKO p27 uninduced (proliferating) cells, value = class bound given in Table A, read-out: −logIC50 RKO p27 uninduced (proliferating) (converted). An outline of the steps:
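Alamar Blue fluorescence (ex 544, em 590 nm) after 72 h compound exposure at 37 °C, 5% CO2, normalised to untreated controls set at 100%. Cells were seeded at 5000 per well and dosed 24 h later with serial semi-logarithmic dilutions in 10% FCS DMEM, four replicates each. −log IC50 [mol/l] was derived from concentration-effect curves.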

In assay [2] the test system is subclones of RKO colon adenocarcinoma cells (RKOp27 or RKOp21) arrested by Ponasterone A. The assay is described as follows: Alamar Blue cell viability assay, cell cycle specific mode of action: cells arrested by ectopic p27Kip1 induced by Ponasterone A versus proliferating cells. In kind it is cell-based. The note with it: Homo sapiens, RKO p27 induced (arrested) cells, 10 μM Ponasterone A, 72 hours, value = class bound given in Table A, read-out: −logIC50 RKO p27 induced (arrested) (converted). The method in brief:
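Viability of proliferating versus Ponasterone A (10 μM)-arrested RKOp27/RKOp21 cells after 72 h compound exposure at 37° C, in quadruplicate. Read-out is Alamar Blue fluorescence (544/590 nm) normalised to untreated cells = 100%; values as −log IC50.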

As for `COc1cccc(C(C)CC(=O)Nc2sc3c(c2C#N)CCC(COC(=O)NC2CCOCC2)C3)c1` (stereo not drawn) [Example 329, (Tetrahydro-pyran-4-yl)-carbamic acid 3-cyano-2-[3-(3-methoxy-phenyl)-butanoyl-amino]-4,5,6,7-tetrahydro-benzo[b] thiophen-6-ylmethyl ester], the IC50 was 0.501 to 2 µM in assay [1] and at least 50.1 µM in assay [2].

`COc1cccc(C(C)CC(=O)Nc2sc3c(c2C#N)CCC(COC(=O)NCc2nccn2C)C3)c1` (stereo not drawn) [Example 330, (1-Methyl-1H-imidazol-2-ylmethyl)-carbamic acid 3-cyano-2-[3-(3-methoxy-phenyl)-butanoylamino]-4,5,6,7-tetrahydro-benzo[b] thiophen-6-ylmethyl ester]: the IC50 in assay [1] was 0.501 to 2 µM; in assay [2], at least 10 µM.

In the case of `COc1cccc(C(C)CC(=O)Nc2sc3c(c2C#N)CCC(COC(=O)NCc2cncn2C)C3)c1` (stereo not drawn) [Example 331, (3-Methyl-3H-imidazol-4-ylmethyl)-carbamic acid 3-cyano-2-[3-(3-methoxy-phenyl)-butanoylamino]-4,5,6,7-tetrahydro-benzo[b] thiophen-6-ylmethyl ester], the IC50 is 0.501 to 2 µM in assay [1] and at least 10 µM in assay [2].

Turning to `COc1cccc(C(C)CC(=O)Nc2sc3c(c2C#N)CCC(COC(=O)NCc2ccnn2C)C3)c1` (stereo not drawn) [Example 332, (2-Methyl-2H-pyrazol-3-ylmethyl)-carbamic acid 3-cyano-2-[3-(3-methoxy-phenyl)-butanoylamino]-4,5,6,7-tetrahydro-benzo[b] thiophen-6-ylmethyl ester], the IC50 is 0.501 to 2 µM in assay [1] and at least 50.1 µM in assay [2].

Turning to `COc1cccc(C(C)CC(=O)Nc2sc3c(c2C#N)CCC(COC(=O)NCc2cnn(C)c2)C3)c1` (stereo not drawn) [Example 333, (1-Methyl-1H-pyrazol-4-ylmethyl)-carbamic acid 3-cyano-2-[3-(3-methoxy-phenyl)-butanoylamino]-4,5,6,7-tetrahydro-benzo[b]thiophen-6-ylmethyl ester], the figures for the IC50 in assay [1] and in assay [2] were 0.501 to 2 µM and at least 10 µM, respectively.

Regarding `COc1cccc(C(C)CC(=O)Nc2sc3c(c2C#N)CCC(COC(=O)NCc2cc(C)on2)C3)c1` (stereo not drawn) [Example 334, (5-Methyl-isoxazol-3-ylmethyl)-carbamic acid 3-cyano-2-[3-(3-methoxy-phenyl)-butanoylamino]-4,5,6,7-tetrahydro-benzo[b]thiophen-6-ylmethyl ester], the IC50 in assay [1] is at most 0.501 µM; in assay [2], at least 50.1 µM.

Regarding `COc1cccc(C(C)CC(=O)Nc2sc3c(c2C#N)CCC(COC(=O)NC(C)c2cccnc2)C3)c1` (stereo not drawn) [Example 335, (1-Pyridin-3-yl-ethyl)-carbamic acid 3-cyano-2-[3-(3-methoxy-phenyl)-butanoylamino]-4,5,6,7-tetrahydro-benzo[b] thiophen-6-ylmethyl ester], the IC50 is 0.501 to 2 µM in assay [1] and at least 50.1 µM in assay [2].

With `COc1cccc(C(C)CC(=O)Nc2sc3c(c2C#N)CCC(COC(=O)NCc2c[nH]nc2C)C3)c1` (stereo not drawn) [Example 336, (3-Methyl-1H-pyrazol-4-ylmethyl)-carbamic acid 3-cyano-2-[3-(3-methoxy-phenyl)-butanoylamino]-4,5,6,7-tetrahydro-benzo[b] thiophen-6-ylmethyl ester], the results for the IC50 in assay [1] and in assay [2] were 0.501 to 2 µM and at least 10 µM, respectively.

Consider `COc1cccc(C(C)CC(=O)Nc2sc3c(c2C#N)CCC(COC(=O)NC(C)c2ccnn2C)C3)c1` (stereo not drawn) [Example 337, [1-(2-Methyl-2H-pyrazol-3-yl)-ethyl]-carbamic acid 3-cyano-2-[3-(3-methoxy-phenyl)-butanoylamino]-4,5,6,7-tetrahydro-benzo[b] thiophen-6-ylmethyl ester], for which the IC50 in assay [1] is 0.501 to 2 µM; in assay [2], at least 50.1 µM.

With `COc1cccc(C(C)CC(=O)Nc2sc3c(c2C#N)CCC(COC(=O)NCc2cccn2C)C3)c1` (stereo not drawn) [Example 338, (1-Methyl-1H-pyrrol-2-ylmethyl)-carbamic acid 3-cyano-2-[3-(3-methoxy-phenyl)-butanoylamino]-4,5,6,7-tetrahydro-benzo[b]thiophen-6-ylmethyl ester], the results for the IC50 in assay [1] and in assay [2] were 0.501 to 2 µM and at least 50.1 µM, respectively.

For `COc1cccc(C(C)CC(=O)Nc2sc3c(c2C#N)CCC(COC(=O)NCc2cn(C)nc2C)C3)c1` (stereo not drawn) [Example 339, (1,3-Dimethyl-1H-pyrazol-4-ylmethyl)-carbamic acid 3-cyano-2-[3-(3-methoxy-phenyl)-butanoylamino]-4,5,6,7-tetrahydro-benzo[b] thiophen-6-ylmethyl ester], the IC50 in assay [1] is 0.501 to 2 µM; in assay [2] it was at least 50.1 µM.

As for `COc1cccc(C(C)CC(=O)Nc2sc3c(c2C#N)CCC(COC(=O)NCc2cc(C)nn2C)C3)c1` (stereo not drawn) [Example 340, (2,5-Dimethyl-2H-pyrazol-3-ylmethyl)-carbamic acid 3-cyano-2-[3-(3-methoxy-phenyl)-butanoyl-amino]-4,5,6,7-tetrahydro-benzo[b]thiophen-6-ylmethyl ester], the results for the IC50 in assay [1] and in assay [2] were 0.501 to 2 µM and at least 10 µM, respectively.

On to `CCn1nccc1CNC(=O)OCC1CCc2c(sc(NC(=O)CC(C)c3cccc(OC)c3)c2C#N)C1` (stereo not drawn) [Example 341, (2-Ethyl-2H-pyrazol-3-ylmethyl)-carbamic acid 3-cyano-2-[3-(3-methoxy-phenyl)-butanoylamino]-4,5,6,7-tetrahydro-benzo[b] thiophen-6-ylmethyl ester], for which the IC50 in assay [1] was 0.501 to 2 µM; in assay [2], at least 50.1 µM.

With `CC(CC(=O)Nc1sc2c(c1C#N)CCC(COC(=O)NCc1ccccc1)C2)c1ccccn1` (stereo not drawn) [Example 343, Benzyl-carbamic acid 3-cyano-2-(3-pyridin-2-yl-butanoyl-amino)-4,5,6,7-tetrahydro-benzo[b] thiophen-6-ylmethyl ester], the IC50 is at most 0.501 µM in assay [1] and at least 50.1 µM in assay [2].

With `Cc1nc(CNC(=O)OC2CCc3c(sc(NC(=O)CC(C)c4ccccc4)c3C#N)C2)cs1` (stereo not drawn) [Example 351, (2-Methyl-thiazol-4-ylmethyl)-carbamic acid 3-cyano-2-(3-phenyl-butanoylamino)-4,5,6,7-tetrahydro-benzo[b] thiophen-6-yl ester], the IC50 in assay [1] is at most 0.501 µM; in assay [2] it was at least 100 µM.

As to `Cc1nocc1CNC(=O)OCC1CCc2c(sc(NC(=O)CC(C)c3ccccc3)c2C#N)C1` (stereo not drawn) [Example 352, (3-Methyl-isoxazol-4-ylmethyl)-carbamic acid 3-cyano-2-(3-phenyl-butanoylamino)-4,5,6,7-tetrahydro-benzo[b]thiophen-6-ylmethyl ester], the IC50 in assay [1] was at most 0.501 µM; in assay [2], at least 100 µM.

Take `CC(CC(=O)Nc1sc2c(c1C#N)CCC(COC(=O)NCc1ccno1)C2)c1ccccc1` (stereo not drawn) [Example 353, Isoxazol-5-ylmethyl-carbamic acid 3-cyano-2-(3-phenyl-butanoylamino)-4,5,6,7-tetrahydro-benzo[b] thiophen-6-ylmethyl ester]: the figures for the IC50 in assay [1] and in assay [2] were at most 0.501 µM and at least 100 µM, respectively.

For the molecule `Cc1oncc1CNC(=O)OC1CCc2c(sc(NC(=O)CC(C)c3cccnc3)c2C#N)C1` (stereo not drawn) [Example 354, (5-Methyl-isoxazol-4-ylmethyl)-carbamic acid 3-cyano-2-(3-pyridin-3-yl-butanoylamino)-4,5,6,7-tetrahydro-benzo[b] thiophen-6-yl ester], the IC50 was 0.501 to 2 µM in assay [1] and at least 100 µM in assay [2].

For the molecule `Cc1nocc1CNC(=O)OC1CCc2c(sc(NC(=O)CC(C)c3cccnc3)c2C#N)C1` (stereo not drawn) [Example 355, (3-Methyl-isoxazol-4-ylmethyl)-carbamic acid 3-cyano-2-(3-pyridin-3-yl-butanoylamino)-4,5,6,7-tetrahydro-benzo[b] thiophen-6-yl ester], the IC50 in assay [1] is 0.501 to 2 µM; in assay [2] it was at least 100 µM.

For `CC(CC(=O)Nc1sc2c(c1C#N)CCC(OC(=O)OCc1cncs1)C2)c1cccnc1` (stereo not drawn) [Example 356, Carbonic acid 3-cyano-2-(3-pyridin-3-yl-butanoylamino)-4,5,6,7-tetrahydro-benzo[b] thiophen-6-yl ester thiazol-5-ylmethyl ester], the IC50 in assay [1] was 0.501 to 2 µM; in assay [2], at least 100 µM.

For `CC(CC(=O)Nc1sc2c(c1C#N)CCC(COC(=O)N1CCCC1)C2)c1cccnc1` (stereo not drawn) [Example 357, Pyrrolidine-1-carboxylic acid 3-cyano-2-(3-pyridin-3-yl-butanoylamino)-4,5,6,7-tetrahydro-benzo[b]thiophen-6-ylmethyl ester], the IC50 in assay [1] is at most 0.501 µM; in assay [2], at least 100 µM.

As for `Cc1oncc1CNC(=O)OC1CCc2c(sc(NC(=O)CC(C)c3ccccc3)c2C#N)C1` (stereo not drawn) [Example 358, (5-Methyl-isoxazol-4-ylmethyl)-carbamic acid 3-cyano-2-(3-phenyl-butanoylamino)-4,5,6,7-tetrahydro-benzo[b]thiophen-6-yl ester], the IC50 in assay [1] is at most 0.501 µM; in assay [2], at least 100 µM.

In the case of `Cc1nocc1CNC(=O)OC1CCc2c(sc(NC(=O)CC(C)c3ccccc3)c2C#N)C1` (stereo not drawn) [Example 359, (3-Methyl-isoxazol-4-ylmethyl)-carbamic acid 3-cyano-2-(3-phenyl-butanoylamino)-4,5,6,7-tetrahydro-benzo[b] thiophen-6-yl ester], the values for the IC50 in assay [1] and in assay [2] were at most 0.501 µM and at least 100 µM, respectively.

Turning to `CC(CC(=O)Nc1sc2c(c1C#N)CCC(OC(=O)N1CCCC1)C2)c1ccccc1` (stereo not drawn) [Example 360, Pyrrolidine-1-carboxylic acid 3-cyano-2-(3-phenyl-butanoylamino)-4,5,6,7-tetrahydro-benzo[b] thiophen-6-yl ester], the values for the IC50 in assay [1] and in assay [2] were at most 0.501 µM and at least 100 µM, respectively.
